In patent US8962322B2, “Enhancers of induced pluripotent stem cell reprogramming” (City of Hope, priority 2012, dated 2015):
Read-outs that look alike come from different tables or passages of the source.

Assays:
[1] = day 8 post-infection of reprogramming factors; cited from earlier work
human Oct4 promoter = experiment: Oct4-luc luciferase reporter assay (stably transfected CV1 cells); format: cell-based; details: for induction of Oct4-luc, comparison with known reprogramming enhancers (in words): OAC1 1 μM, BIO 2 μM, BIX 2 μM, AzaC 2 μM, Vc 25 μg/ml, Am580 10 nM, tranylcypromine 5 μM, VPA 0.5 mM, two days; for fold induction at 1 µM: compound at 1 μM, Oct4-luc cells, triplicates
Description: A high-throughput screening scheme was designed to identify Oct4 promoter-activating compounds using a luciferase reporter under the control of the human Oct4 promoter (Oct4-luc). […] A stable cell line (Oct4-luc) that expresses luciferase reporter driven by the exogenous Oct4 promoter was established using hygromycin-resistance as a selection marker. These Oct4-luc cells were used for high-throughput screening of a chemical library of 80,000 compounds. The luciferase reporter activity was measured 24 hr after compound treatment. Solvent treatment was included as a negative control.
(§1) Then the promoter sequences were cloned into pGL4.4-luc-Hyg vector (Promega) to get Oct4-luc or Nanog-luc construct and the fidelity of the Oct4 and Nanog promoter DNA sequences was confirmed by bi-directional sequencing. CV 1 cells were transfected with the Oct4-luc or Nanog-luc constructs and the stably-transfected cells were selected by hygromycine resistance.
Compound Screening: The Oct4-luc cells were seeded at 1.75×10^4 cells per well density into 96-well plates. Compounds were added to cells one day after cell seeding at the concentration of 10 μM for 24 hr in the High-Throughput Screening core facility at City of Hope. Compounds that induced luciferase activity 3-fold or more were selected for further validation in both Oct4-luc and Nanog-luc cells.
(§2) Luciferase Reporter Assays: The Oct4-luc or Nanog-luc cells were treated with compound OAC 1 or its structural analogs at 1 μM concentration or at indicated concentrations in triplicates. Other compounds used include 2 μM BIO, 2 μM BIX, 2 μM
(§3) AzaC, 25 μg/ml Vc, 10 nM Am580, 5 μM tranylcypromine, and 0.5 mM VPA. Luciferase reporter assays were performed as described (51) 24 hr after compound treatment or at indicated time points. For Topflash reporter assays, 0.2 μg β-catenin-responsive Topflash reporter gene plasmid was introduced into CV1 cells using trasfection (Bio-Rad). Compounds were added 6 hr after transfection. Luciferase activity was measured 48 hr after compound treatment using the Glo Luciferase Assay System (Promega).

human Nanog promoter = experiment: Nanog-luc luciferase reporter assay (stably transfected CV1 cells); format: cell-based; details: for induction of Nanog-luc, comparison with known reprogramming enhancers (in words): OAC1 1 μM, BIO 2 μM, BIX 2 μM, AzaC 2 μM, Vc 25 μg/ml, Am580 10 nM, tranylcypromine 5 μM, VPA 0.5 mM, two days
Experimental: Oct4, Sox2, and Nanog form a positive regulatory loop to regulate the expression of each other, and Nanog is considered a downstream target gene of Oct4 and Sox2 (37). Therefore, activation of Nanog promoter was used as a validation assay for the identified compounds. Specifically, the Oct4 promoter-activating compounds were tested to ascertain whether they activate a human
Nanog promoter-driven luciferase reporter gene using in triplicate luciferase reporter assays.
as §1, §2, §3

[2] = test system: β-catenin-responsive reporter gene Topflash; experiment: Topflash luciferase reporter assay in CV1 cells (Wnt signaling); format: cell-based; details: 1 μM OAC1 or 2 μM BIO, 48 hr
Experimental: Whether OAC1 regulates major signaling pathways that are critical for embryonic stem cell pluripotency was investigated. […] CV1 cells were transfected with the β-catenin-responsive reporter gene Topflash, and the transfected cells were treated with vehicle control or OAC1 (FIG. 6C). The glycogen synthase kinase 3β (GSK3β) inhibitor BIO was included as a positive control (42).
as §3

MEFs = details: OSKM, seeding 2.7 × 10^5, day 8, reference (2) Huangfu 2008; cited from earlier work
[3] = test system: human fibroblast cells (IMR90); experiment: human iPSC derivation from 4F (OSKM)-transduced IMR90 fibroblasts; format: cell-based
Experimental: It has been shown that compound OAC1 (Oct4-activating compound I) and two of its structural analogs OAC2 and OAC3 can enhance reprogramming efficiency, when added to the reprogramming mixture along with the four transcription factors, Oct4, Sox2, Klf4, and c-Myc (OSKM), in mouse system. The OAC compounds were tested to determine if they can enhance reprogramming efficiency in human system. The reprogramming process was performed as described in the diagram (FIG. 14a). Briefly, human fibroblast cells (IMR90) were induced to reprogram into induced pluripotent stem cells (iPSCs) using the four reprogramming factors (4F), OSKM. The day when the cells were transduced with the four reprogramming factors was referred to as day 0. Cells were cultured in IMR90 media for six days. On day 6, the transduced cells were split and seeded onto feeders. On day 7, IMR90 culture media was changed to hESC culture media and started compound treatment. Compound treatment was lasted for one week. Cells were monitored for the appearance of human embryonic stem cell (ESC)-like colonies. On day 9, several small human ESC-like colonies appeared in both 4F+OAC1 and 4F+OAC2-treated cells, however, human ESC-like colonies were not observed in 4F+vehicle (4F)-treated cells until day 11. To determine the effect of OAC on the efficiency of human iPSC derivation, the number of human ESC-like colonies were counted under all three conditions at day 18. Both OAC 1 and its structural analog OAC2 increased the number of human ESC-like colonies more than two-fold (FIG. 14b, c). The human ESC-like colonies were picked from either 4F or 4F+OAC-treated cells and expanded under human ESC culture conditions. These cells were able to expand and stably produce human iPSC clones with characteristic human ESC-like morphology (FIG. 14d).

[4] = test system: mouse embryonic fibroblasts (MEFs); experiment: iPSC derivation from 4F (OSKM)-transduced MEFs in mouse ESC media; format: cell-based; details: 4F+OAC
Experimental: The generation of iPSCs is a gradual process with relatively low efficiency. Since Oct4 is central to the reprogramming process (35, 36, 38), it was hypothesized that compounds that activate Oct4 transcription may facilitate iPSC generation by enhancing reprogramming efficiency. Reprogramming of mouse embryonic fibroblasts (MEFs) was performed with the 4F reprogramming quartet Oct4, Sox2, Klf4, and c-Myc, along with solvent control, OAC1 or its structural analogs OAC2 and OAC3. The same number of starting MEFs and the same viral stocks were used for each treatment. Two days after viral transduction, the 4F-transduced cells were seeded onto feeder cells in mouse ESC culture media, and this day was designated as day 0 (FIG. 2D). Compound treatment started on day 0 and lasted for 7 days. By counting the number of clones with ESC-like morphology at day 18, both OAC1 and its analogs OAC2 and OAC3 enhanced the 4F-induced reprogramming efficiency considerably. The number of colonies with ESC-like morphology (FIG. 2E) increased 2-fold or more in 4F plus OAC (4F+OAC) treatment, compared to the 4F treatment alone (FIG. 2F, Table 3).
iPSC Derivation in Mouse ESC Media: OG2/R26MEFs were seeded onto […] at the density of 4×10^4 cells per well in DMEM medium with 10% FBS, 0.1 mM non-essential amino acids (NEAA), and 0.1 mM L-glutamine, 24 hr before transduction. Freshly concentrated viruses of the four factors, Oct4, Sox2, c-Myc, and Klf4, were added to the cells. Two days after viral infection, the viral-transduced OG2/R26MEFs were split into new 6-well plates with irradiated MEF feeder cells and cultured in mouse ESC culture medium containing 15% ESC qualified FBS, 2 mM L-glutamine, 0.1 mM 2-mercaptoethanol, 0.1 mM NEAA, 1 mM sodium pyruvate and 1000 U/ml of leukemia inhibitory factor (LIF), and this day was defined as day 0. 1 μM of each compound (OAC1, OAC2, and OAC3) was added to the 4F-transduced cells at day 0 and treatment was continued for 1 week. When iPSC colonies emerged, these colonies were picked for expansion on irradiated MEF feeders in mouse ESC medium.

SMILES: CC(/C=C/C(=O)NO)=C\[C@@H](C)C(=O)c1ccc(N(C)C)cc1 [TSA]
- increase in reprogramming efficiency in iSF1 media [1]: 2 fold

SMILES: O=C1Nc2cc(Br)ccc2/C1=C1/Nc2ccccc2/C1=N\O [BIO, reference compound]
- induction of Oct4-luc, comparison with known reprogramming enhancers (in words) (human Oct4 promoter): lower level induction
- induction of Nanog-luc, comparison with known reprogramming enhancers (in words) (human Nanog promoter): lower level induction
- effect on Topflash reporter activity [2]: activated the Topflash reporter potently

SMILES: CCCC(CCC)C(=O)O [VPA, valproic acid]
- induction of Oct4-luc, comparison with known reprogramming enhancers (in words) (human Oct4 promoter): no significant effect
- Colony numbers (MEFs): 241
- Reprogramming efficiency (MEFs): 0.089%
- increase in reprogramming efficiency in iSF1 media [1]: 2 fold
- induction of Nanog-luc, comparison with known reprogramming enhancers (in words) (human Nanog promoter): no significant effect

SMILES: O=C(Nc1ccc2[nH]ccc2c1)c1ccccc1 [OAC2, N-(1H-indol-5-yl)benzamide]
- fold induction at 1 µM (human Oct4 promoter; Homo sapiens, CV-1, 24 h, read-out: Oct4-luc Activity): ≥ 1.8
- fold induction at 1 µM (human Oct4 promoter; read-out: Oct4-luc fold Induction): 3.6
- day at which human ESC-like colonies appeared ([3]; IMR90, 4F+compound, day 0 = transduction, 4F+vehicle day 11): 9 days
- increase in the number of human ESC-like colonies ([3]; IMR90, day 18, versus 4F): more than two
- advance of the appearance of putative iPSC colonies compared to 4F only reprogramming [4]: about three to four
- fold induction at 1 µM (human Nanog promoter; Chlorocebus aethiops, CV-1, compound at 1 μM, Nanog-luc cells, triplicates): 3.9
